The source of these data is ChEMBL document CHEMBL3351874, “Rational design of inhibitors of the bacterial cell wall synthetic enzyme GlmU using virtual screening and lead-hopping” (Bioorg Med Chem, 2014).

As usually defined, the IC50 is the concentration at which inhibition is half-maximal.

The target in data set [1] is Bifunctional protein GlmU (Escherichia coli, UniProt C3SLB7). The experiment in a line: Inhibition of Escherichia coli ATCC 27325 GlmU expressed in Escherichia coli HMS174(DE3) incubated for 15 mins prior to MgCl2 addition measured after 30 mins by malachite green staining-based assay.
Sequence of Bifunctional protein GlmU (C3SLB7 whole entry): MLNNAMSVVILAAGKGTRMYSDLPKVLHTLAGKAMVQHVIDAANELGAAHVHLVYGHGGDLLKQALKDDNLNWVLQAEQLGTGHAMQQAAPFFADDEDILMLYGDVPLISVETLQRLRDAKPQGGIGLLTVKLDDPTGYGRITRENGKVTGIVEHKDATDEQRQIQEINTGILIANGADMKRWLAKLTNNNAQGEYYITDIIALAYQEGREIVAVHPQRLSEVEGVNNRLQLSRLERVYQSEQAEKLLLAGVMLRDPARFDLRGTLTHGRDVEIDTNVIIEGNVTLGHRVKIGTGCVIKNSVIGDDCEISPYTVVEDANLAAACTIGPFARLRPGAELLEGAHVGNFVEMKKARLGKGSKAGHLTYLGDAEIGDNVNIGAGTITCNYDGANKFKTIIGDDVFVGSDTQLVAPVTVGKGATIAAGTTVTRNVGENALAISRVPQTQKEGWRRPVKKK
Data set [2] is described as follows: Serum protein binding in human at 10 uM after 30 mins by ultrafiltration method. The data set is classed as ADME. The settings on record: read-out: PB (converted).
The nature of data set [3]: Inhibition of Haemophilus influenzae ATCC 51907 GlmU expressed in Escherichia coli BL21(DE3) incubated for 15 mins prior to MgCl2 addition measured after 30 mins by malachite green staining-based assay.
Data set [4] has as its target Cyclin-dependent kinase 9 (Homo sapiens, UniProt P50750). The experiment in a line: Inhibition of human CDK9 incubated for 20 mins prior to MgCl2 addition measured after 90 mins by mobility shift assay.
Data set [5] deals with T1, Tyrosine-protein kinase JAK3 (Homo sapiens, UniProt P52333).
T1 sequence (P52333 whole entry): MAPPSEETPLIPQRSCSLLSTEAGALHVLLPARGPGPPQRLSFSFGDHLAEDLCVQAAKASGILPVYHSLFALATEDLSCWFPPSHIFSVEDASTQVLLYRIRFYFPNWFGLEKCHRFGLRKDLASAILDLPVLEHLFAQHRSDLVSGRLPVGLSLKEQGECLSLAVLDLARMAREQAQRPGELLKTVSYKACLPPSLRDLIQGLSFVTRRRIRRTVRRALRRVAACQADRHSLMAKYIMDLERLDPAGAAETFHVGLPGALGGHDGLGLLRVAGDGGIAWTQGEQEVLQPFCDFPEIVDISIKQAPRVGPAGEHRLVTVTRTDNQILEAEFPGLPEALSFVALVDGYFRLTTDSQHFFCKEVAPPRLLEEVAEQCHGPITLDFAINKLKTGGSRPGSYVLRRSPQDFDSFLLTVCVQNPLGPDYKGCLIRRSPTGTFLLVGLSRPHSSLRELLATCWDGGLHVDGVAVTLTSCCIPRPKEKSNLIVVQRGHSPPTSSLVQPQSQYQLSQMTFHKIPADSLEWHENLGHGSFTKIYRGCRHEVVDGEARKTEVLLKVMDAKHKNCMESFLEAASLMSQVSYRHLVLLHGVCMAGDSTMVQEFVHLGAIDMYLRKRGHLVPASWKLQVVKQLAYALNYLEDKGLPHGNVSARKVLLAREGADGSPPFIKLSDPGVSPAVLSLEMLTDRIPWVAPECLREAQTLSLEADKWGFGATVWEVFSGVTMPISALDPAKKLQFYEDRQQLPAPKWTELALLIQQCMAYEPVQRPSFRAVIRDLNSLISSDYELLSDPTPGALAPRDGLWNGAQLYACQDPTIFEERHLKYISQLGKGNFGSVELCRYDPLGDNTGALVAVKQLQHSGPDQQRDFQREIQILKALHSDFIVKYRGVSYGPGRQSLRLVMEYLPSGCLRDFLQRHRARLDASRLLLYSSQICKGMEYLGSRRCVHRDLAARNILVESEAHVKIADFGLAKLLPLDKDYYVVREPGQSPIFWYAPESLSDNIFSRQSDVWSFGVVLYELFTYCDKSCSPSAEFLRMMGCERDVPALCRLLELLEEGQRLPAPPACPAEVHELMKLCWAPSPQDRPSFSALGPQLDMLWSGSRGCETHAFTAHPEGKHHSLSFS
Nature of the data set: Inhibition of human JAK3 incubated for 20 mins prior to MgCl2 addition measured after 90 mins by mobility shift assay.

Data set [6] deals with Cyclin-dependent kinase 2 (Homo sapiens, UniProt P24941). The experiment in a line: Inhibition of human CDK2 incubated for 20 mins prior to MgCl2 addition measured after 90 mins by mobility shift assay.
Data set [7] has as its target Cyclin-dependent kinase 1 (Homo sapiens, UniProt P06493). The experiment in a line: Inhibition of human CDK1 incubated for 20 mins prior to MgCl2 addition measured after 90 mins by mobility shift assay.
In data set [8] the target is Tyrosine-protein kinase JAK2 (Homo sapiens, UniProt O60674). Nature of the data set: Inhibition of human JAK2 incubated for 20 mins prior to MgCl2 addition measured after 90 mins by mobility shift assay.
Sequence of Tyrosine-protein kinase JAK2 (O60674 whole entry): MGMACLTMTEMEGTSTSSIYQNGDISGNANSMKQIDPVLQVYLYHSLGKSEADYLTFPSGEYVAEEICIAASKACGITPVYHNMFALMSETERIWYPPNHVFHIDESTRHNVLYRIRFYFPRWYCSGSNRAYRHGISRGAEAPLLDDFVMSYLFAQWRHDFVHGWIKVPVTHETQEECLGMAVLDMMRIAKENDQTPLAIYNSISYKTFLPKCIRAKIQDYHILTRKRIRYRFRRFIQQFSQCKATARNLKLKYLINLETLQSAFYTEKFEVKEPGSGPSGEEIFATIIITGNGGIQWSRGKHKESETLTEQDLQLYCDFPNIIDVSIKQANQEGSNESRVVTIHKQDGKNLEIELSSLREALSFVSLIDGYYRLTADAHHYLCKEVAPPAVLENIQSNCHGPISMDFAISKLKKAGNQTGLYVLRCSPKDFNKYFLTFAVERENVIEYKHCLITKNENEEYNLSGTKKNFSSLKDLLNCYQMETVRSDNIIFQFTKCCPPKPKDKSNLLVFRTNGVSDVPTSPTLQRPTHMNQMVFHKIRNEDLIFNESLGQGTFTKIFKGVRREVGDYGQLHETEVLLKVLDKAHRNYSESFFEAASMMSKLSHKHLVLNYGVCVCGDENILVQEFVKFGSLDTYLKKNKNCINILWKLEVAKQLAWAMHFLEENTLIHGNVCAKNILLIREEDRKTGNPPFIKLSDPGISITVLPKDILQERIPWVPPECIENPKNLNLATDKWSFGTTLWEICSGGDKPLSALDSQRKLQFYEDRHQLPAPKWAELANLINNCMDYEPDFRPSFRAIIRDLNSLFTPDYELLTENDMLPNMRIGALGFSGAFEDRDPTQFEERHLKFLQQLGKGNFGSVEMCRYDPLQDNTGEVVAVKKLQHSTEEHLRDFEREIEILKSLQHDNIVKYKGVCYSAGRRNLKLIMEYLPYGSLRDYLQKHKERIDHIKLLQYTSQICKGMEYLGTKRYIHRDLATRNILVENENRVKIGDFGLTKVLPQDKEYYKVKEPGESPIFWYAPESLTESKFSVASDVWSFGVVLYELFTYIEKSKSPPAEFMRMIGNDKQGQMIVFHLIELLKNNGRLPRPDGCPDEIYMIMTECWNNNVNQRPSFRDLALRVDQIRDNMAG
The target of data set [9] is Aurora kinase B (Homo sapiens, UniProt Q96GD4). The experiment in a line: Inhibition of human AURKB incubated for 20 mins prior to MgCl2 addition measured after 90 mins by mobility shift assay.
Sequence of Aurora kinase B (Q96GD4 whole entry): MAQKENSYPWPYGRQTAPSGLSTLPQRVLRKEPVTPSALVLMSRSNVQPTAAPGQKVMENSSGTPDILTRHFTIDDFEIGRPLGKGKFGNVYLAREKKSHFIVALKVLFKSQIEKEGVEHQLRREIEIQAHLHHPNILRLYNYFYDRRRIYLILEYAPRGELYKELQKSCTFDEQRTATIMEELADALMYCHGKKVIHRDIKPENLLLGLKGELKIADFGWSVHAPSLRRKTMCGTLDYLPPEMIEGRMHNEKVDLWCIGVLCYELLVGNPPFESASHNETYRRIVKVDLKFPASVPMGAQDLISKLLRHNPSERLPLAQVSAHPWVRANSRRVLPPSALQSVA
Data set [10] deals with Interleukin-1 receptor-associated kinase 1 (Homo sapiens, UniProt P51617). The experiment in a line: Inhibition of human IRAK1 incubated for 20 mins prior to MgCl2 addition measured after 90 mins by mobility shift assay.
Sequence of Interleukin-1 receptor-associated kinase 1 (P51617 whole entry): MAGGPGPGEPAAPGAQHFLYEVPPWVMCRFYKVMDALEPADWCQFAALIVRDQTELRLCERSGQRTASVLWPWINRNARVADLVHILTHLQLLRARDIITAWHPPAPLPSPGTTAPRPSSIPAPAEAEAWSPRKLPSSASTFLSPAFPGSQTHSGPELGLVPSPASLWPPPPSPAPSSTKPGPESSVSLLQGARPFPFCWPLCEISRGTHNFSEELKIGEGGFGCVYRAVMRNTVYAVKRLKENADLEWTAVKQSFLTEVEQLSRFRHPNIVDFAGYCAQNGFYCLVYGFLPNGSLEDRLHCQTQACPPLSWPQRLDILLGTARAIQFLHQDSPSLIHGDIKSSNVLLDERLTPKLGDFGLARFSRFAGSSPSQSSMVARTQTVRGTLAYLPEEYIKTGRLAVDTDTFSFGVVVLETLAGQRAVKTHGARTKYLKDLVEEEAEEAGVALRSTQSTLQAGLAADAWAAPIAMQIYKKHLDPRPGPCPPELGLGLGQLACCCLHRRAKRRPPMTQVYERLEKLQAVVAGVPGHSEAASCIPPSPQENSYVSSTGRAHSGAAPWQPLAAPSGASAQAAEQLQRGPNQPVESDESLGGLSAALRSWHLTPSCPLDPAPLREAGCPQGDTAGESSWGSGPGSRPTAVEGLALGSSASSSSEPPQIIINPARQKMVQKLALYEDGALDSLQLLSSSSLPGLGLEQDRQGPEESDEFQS
The target of data set [11] is T2, Interleukin-1 receptor-associated kinase 4 (Homo sapiens, UniProt Q9NWZ3).
T2 sequence (Q9NWZ3 whole entry): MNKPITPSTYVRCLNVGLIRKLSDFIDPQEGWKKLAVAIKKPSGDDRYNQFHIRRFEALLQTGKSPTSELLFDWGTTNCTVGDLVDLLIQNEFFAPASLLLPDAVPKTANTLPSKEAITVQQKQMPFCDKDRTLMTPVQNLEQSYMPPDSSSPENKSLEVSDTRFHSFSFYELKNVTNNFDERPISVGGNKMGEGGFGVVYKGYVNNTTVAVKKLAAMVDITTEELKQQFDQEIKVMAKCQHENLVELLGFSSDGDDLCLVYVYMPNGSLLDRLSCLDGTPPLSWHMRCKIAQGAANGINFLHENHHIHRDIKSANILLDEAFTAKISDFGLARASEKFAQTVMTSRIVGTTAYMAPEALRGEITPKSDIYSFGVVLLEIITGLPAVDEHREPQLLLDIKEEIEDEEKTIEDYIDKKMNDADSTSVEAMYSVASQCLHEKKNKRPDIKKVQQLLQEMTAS
The experiment in a line: Inhibition of human IRAK4 incubated for 20 mins prior to MgCl2 addition measured after 90 mins by mobility shift assay.

The target in data set [12] is Tyrosine-protein kinase JAK1 (Homo sapiens, UniProt P23458). The experiment in a line: Inhibition of human JAK1 incubated for 20 mins prior to MgCl2 addition measured after 90 mins by mobility shift assay.
Sequence of Tyrosine-protein kinase JAK1 (P23458 whole entry): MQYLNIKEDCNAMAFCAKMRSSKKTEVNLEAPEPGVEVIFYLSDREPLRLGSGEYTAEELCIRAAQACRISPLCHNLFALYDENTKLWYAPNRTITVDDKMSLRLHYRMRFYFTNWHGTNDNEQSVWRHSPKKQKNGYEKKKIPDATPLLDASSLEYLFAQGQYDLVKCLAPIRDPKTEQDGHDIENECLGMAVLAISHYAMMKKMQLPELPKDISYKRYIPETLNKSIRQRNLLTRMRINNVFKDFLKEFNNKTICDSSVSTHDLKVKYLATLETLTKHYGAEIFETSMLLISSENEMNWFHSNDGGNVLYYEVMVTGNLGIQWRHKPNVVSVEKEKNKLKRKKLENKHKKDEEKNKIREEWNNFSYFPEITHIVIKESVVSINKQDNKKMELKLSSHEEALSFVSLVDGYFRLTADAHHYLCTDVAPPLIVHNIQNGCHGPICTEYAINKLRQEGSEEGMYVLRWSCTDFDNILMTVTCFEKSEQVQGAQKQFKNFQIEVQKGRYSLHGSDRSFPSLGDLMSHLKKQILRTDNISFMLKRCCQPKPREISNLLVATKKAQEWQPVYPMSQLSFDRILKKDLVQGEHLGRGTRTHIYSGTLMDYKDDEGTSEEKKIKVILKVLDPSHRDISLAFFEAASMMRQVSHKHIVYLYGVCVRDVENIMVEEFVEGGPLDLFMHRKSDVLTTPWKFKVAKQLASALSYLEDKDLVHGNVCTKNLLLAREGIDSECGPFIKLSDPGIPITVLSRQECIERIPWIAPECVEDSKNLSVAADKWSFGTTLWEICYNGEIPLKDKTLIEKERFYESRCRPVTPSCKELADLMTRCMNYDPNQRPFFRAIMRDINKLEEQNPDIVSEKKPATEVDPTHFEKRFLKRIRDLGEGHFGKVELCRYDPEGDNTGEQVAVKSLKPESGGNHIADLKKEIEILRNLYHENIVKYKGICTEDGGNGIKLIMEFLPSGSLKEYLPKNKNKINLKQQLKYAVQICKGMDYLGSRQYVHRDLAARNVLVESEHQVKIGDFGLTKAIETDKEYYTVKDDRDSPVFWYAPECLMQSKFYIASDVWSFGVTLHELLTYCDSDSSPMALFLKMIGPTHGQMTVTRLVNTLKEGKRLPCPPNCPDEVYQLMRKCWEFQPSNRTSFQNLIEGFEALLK

Sequence of Cyclin-dependent kinase 9 (P50750 whole entry): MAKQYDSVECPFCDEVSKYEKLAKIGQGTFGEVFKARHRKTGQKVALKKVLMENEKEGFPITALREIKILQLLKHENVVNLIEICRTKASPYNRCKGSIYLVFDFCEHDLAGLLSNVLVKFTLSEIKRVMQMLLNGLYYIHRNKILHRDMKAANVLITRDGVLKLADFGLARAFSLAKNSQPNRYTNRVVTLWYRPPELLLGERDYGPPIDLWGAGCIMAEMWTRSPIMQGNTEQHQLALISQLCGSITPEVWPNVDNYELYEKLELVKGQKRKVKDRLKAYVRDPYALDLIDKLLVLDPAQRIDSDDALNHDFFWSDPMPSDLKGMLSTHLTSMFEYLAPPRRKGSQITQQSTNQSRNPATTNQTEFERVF
Sequence of Cyclin-dependent kinase 1 (P06493 whole entry): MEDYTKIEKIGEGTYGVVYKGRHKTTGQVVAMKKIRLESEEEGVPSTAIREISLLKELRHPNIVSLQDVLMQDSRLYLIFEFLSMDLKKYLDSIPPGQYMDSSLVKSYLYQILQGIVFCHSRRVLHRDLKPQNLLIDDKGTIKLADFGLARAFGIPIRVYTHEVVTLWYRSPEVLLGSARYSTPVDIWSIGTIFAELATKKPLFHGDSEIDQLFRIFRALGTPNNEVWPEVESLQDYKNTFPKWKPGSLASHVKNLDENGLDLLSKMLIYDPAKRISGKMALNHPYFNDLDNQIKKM

Regarding `COc1cc(C(=O)Nc2ccc(NC(=O)c3ccccn3)cc2)cc(-c2nn[nH]n2)c1`, the IC50 in data set [1] was determined as 21 µM; in data set [3], 0.55 µM. In addition, in data set [2], the fraction unbound at 0.5 h, 10 µM was 0.032.

As to `COc1cc2c(Nc3ccc(NC(=O)c4ccccc4)cc3)nc(NCCc3ccccn3)nc2cc1O`, the IC50 in [4] is above 30 µM; in data set [1], 0.65 µM; in data set [5] it was above 30 µM; in data set [6], above 30 µM; in data set [7], above 30 µM; in data set [8], above 30 µM. Further, the half-maximal inhibitory concentration (IC50) is above 30 µM in data set [9]; above 30 µM in data set [10]; 0.579 µM in data set [11]; above 30 µM in data set [12]; 0.38 µM in data set [3]. In addition, in data set [2], the fraction unbound at 0.5 h, 10 µM is below 0.01.

In the case of `COc1ccc(C(=O)Nc2ccc(NC(=O)c3ccccn3)cc2)cc1-c1c[nH]c(=O)[nH]c1=O`, the IC50 in data set [4] was above 30 µM; in data set [1], above 22 µM; in data set [5], above 30 µM; in [6], above 30 µM; in data set [7], above 30 µM; in data set [8] it was above 30 µM. For the same compound, the IC50 is above 30 µM in [9]; above 30 µM in data set [10]; above 30 µM in data set [11]; above 30 µM in data set [12]; 0.95 µM in [3]. Also, the fraction unbound at 0.5 h, 10 µM in data set [2] is below 0.01.

As for `COc1cc(C(=O)Nc2ccc(NC(=O)c3ccccn3)cc2)cc(-c2nc(=O)o[nH]2)c1`, the figures for the IC50 in data set [1] and in [3] were above 22 µM and 1.7 µM, respectively. Besides, in data set [2], the fraction unbound at 0.5 h, 10 µM is 0.016.

Turning to `COc1cc(C(=O)Nc2ccc(NC(=O)c3ccccc3)cc2)ccc1OCC(N)=O`, the IC50 in data set [1] and in data set [3] was above 22 µM throughout.

With `O=C(Nc1ccc(NC(=O)c2ccccn2)cc1)c1ccc(O)c([N+](=O)[O-])c1`, the concentration for half-maximal inhibition (IC50) is above 30 µM in data set [4]; 3.1 µM in data set [1]; above 30 µM in data set [5]; above 30 µM in data set [6]; above 30 µM in data set [7]; above 30 µM in data set [8]. Moreover, the IC50 was 23.1 µM in data set [9]; above 30 µM in data set [10]; above 30 µM in data set [11]; above 30 µM in data set [12]; 0.05 µM in data set [3]. For the same compound, the fraction unbound at 0.5 h, 10 µM in data set [2] was below 0.01.

For the compound `COc1cc(C(=O)Nc2ccc(NC(=O)c3ccccn3)cc2)cc(-c2cnc(=O)[nH]c2)c1`, the IC50 in data set [1] was 4.2 µM; in [3], 0.98 µM. Also, the fraction unbound at 0.5 h, 10 µM in data set [2] is below 0.01.

On to `O=c1[nH]cc(-c2cccc(Br)c2)c(=O)[nH]1`, for which the IC50 in [3] was 50 µM.

In the case of `COc1cc2c(Nc3ccc(NC(=O)c4ccccc4)cc3)ncnc2cc1OCC(N)=O`, the IC50 is above 30 µM in data set [4]; above 22 µM in data set [1]; above 30 µM in [5]; above 30 µM in data set [6]; above 30 µM in data set [7]; above 30 µM in data set [8]. The IC50 was 0.155 µM in data set [9]; above 30 µM in data set [10]; above 30 µM in data set [11]; above 30 µM in data set [12]; above 22 µM in [3].

For the compound `COc1cc(C(=O)Nc2ccc(NC(=O)c3ccccc3)cc2)ccc1OCC(=O)O`, the IC50 is above 30 µM in data set [4]; above 67 µM in data set [1]; above 30 µM in [5]; above 30 µM in data set [6]; above 30 µM in data set [7]; above 30 µM in data set [8]. Besides, the IC50 in data set [9] was above 30 µM; in data set [10], above 30 µM; in data set [11], above 30 µM; in data set [12], above 30 µM; in data set [3] it was 23 µM.

Turning to `COc1cc(C(=O)Nc2ccc(NC(=O)c3ccccn3)cc2)cc(-c2c[nH]c(=O)[nH]c2=O)c1`, the IC50 is above 30 µM in data set [4]; 0.027 µM in data set [1]; above 30 µM in data set [5]; above 30 µM in data set [6]; above 30 µM in [7]; above 30 µM in [8]. In addition, the IC50 in data set [9] is above 30 µM; in data set [10], above 30 µM; in data set [11], above 30 µM; in data set [12] it was above 30 µM; in data set [3] it was 0.0017 µM.

As for `COc1cc2c(Nc3ccc(NC(=O)c4ccccc4)cc3)nc(NCCCn3ccnc3)nc2cc1O`, the results for the IC50 in data set [1] and in data set [3] were 4.5 µM and 1.12 µM, respectively. Moreover, the fraction unbound at 0.5 h, 10 µM in [2] was 0.012.

Turning to `COc1cc(C(=O)Nc2ccc(NC(=O)c3ccccc3)cc2)cc(-c2c[nH]c(=O)[nH]c2=O)c1O`, the IC50 in data set [1] worked out at 0.26 µM; in data set [3] it was 0.02 µM. For the same compound, in data set [2], the fraction unbound at 0.5 h, 10 µM was 0.019.

Take `COc1cc2c(Nc3ccc(NC(=O)c4ccccc4)cc3)ncnc2cc1O`: the IC50 was above 30 µM in data set [4]; 1.3 µM in [1]; above 30 µM in data set [5]; above 30 µM in data set [6]; above 30 µM in data set [7]; above 30 µM in [8]. For the same compound, the IC50 in data set [9] is 0.275 µM; in [10], above 30 µM; in data set [11], above 30 µM; in [12], above 30 µM; in data set [3], 0.26 µM.

Turning to `COc1cc2c(Nc3ccc(NC(=O)c4ccccc4)cc3)nc(Cc3ccccc3)nc2cc1O`, the IC50 turned out to be 4.8 µM in data set [1] and 1.8 µM in data set [3]. Besides, the fraction unbound at 0.5 h, 10 µM in data set [2] is below 0.01.

For the compound `COc1cc2c(Nc3ccc(NC(=O)c4ccccc4)cc3)ncnc2cc1OCCO`, the IC50 is above 30 µM in data set [4]; 35 µM in data set [1]; above 30 µM in data set [5]; above 30 µM in data set [6]; above 30 µM in data set [7]; above 30 µM in data set [8]. The IC50 in data set [9] is 0.0273 µM; in data set [10] it was above 30 µM; in data set [11], 24.4 µM; in data set [12] it was above 30 µM; in data set [3], 19 µM.

For the compound `O=c1[nH]cc(-c2cccc([N+](=O)[O-])c2)c(=O)[nH]1`, the IC50 in data set [3] worked out at 1950 µM.

As for `COc1cc2c(Nc3ccc(NC(=O)c4ccccc4)cc3)nc(Cl)nc2cc1O`, the IC50 in data set [1] was 0.37 µM; in data set [3] it was 0.65 µM. The fraction unbound at 0.5 h, 10 µM in data set [2] was 0.021.

For `COc1cc2c(Nc3ccc(NC(=O)c4ccccc4)cc3)nc(-c3ccccn3)nc2cc1O`, the IC50 was 2.7 µM in data set [1] and 1.5 µM in [3]. The fraction unbound at 0.5 h, 10 µM in [2] is below 0.01.
